Here are results for 13 molecules from patent US20220409629A1, “BENZODIAZEPINE DERIVATIVES FOR TREATING A RESPIRATORY SYNCYTIAL VIRUS (RSV) INFECTION” (priority 2019, published 2022).

Each structure is given as a SMILES string.

Data set [1] can be described thus: Liver microsomal stability, rat. In kind it is in vitro ADME. The conditions noted are these: pH 7.4; rat liver microsomes, 0.5 mg/mL protein, 1 μM compound, NADPH; >80% remaining at 45 min denoted >140; read-out: Liver Microsomal Stability: t1/2 (min); rat. On the procedure: (§1) Compounds were subjected to the following assays to investigate liver microsomal stability, permeability and plasma protein binding.
(§2) Pooled liver microsomes were purchased from a reputable commercial supplier and stored at −80° C. prior to use. Microsomes (final protein concentration 0.5 mg/mL), 0.1 M phosphate buffer pH 7.4 and test compound (final substrate concentration 1 μM; final DMSO concentration 0.25%) were pre-incubated at 37° C. prior to the addition of NADPH (final concentration 1 mM) to initiate the reaction. The final incubation volume was 50 μL. A control incubation was included for each compound tested where 0.1 M phosphate buffer pH 7.4 was added instead of NADPH (minus NADPH). Two control compounds were included with each species. All incubations were performed singularly for each test compound. Each compound was incubated for 0, 5, 15, 30 and 45 min. The control (minus NADPH) was incubated for 45 min only. The reactions were stopped by transferring incubate into acetonitrile at the appropriate time points, in a 1:3 ratio. The termination plates are centrifuged at 3,000 rpm for 20 min at 4° C. to precipitate the protein. Following protein precipitation, the sample supernatants were combined in cassettes of up to 4 compounds, internal standard added, and samples analysed by LC-MS/MS. From a plot of ln peak area ratio (compound peak area/internal standard peak area) against time, the gradient of the line was determined. Subsequently, half-life (t1/2) and intrinsic clearance (CLint) were calculated.
(In general: Microsomes from liver hold many membrane-bound enzymes, among them those of drug oxidation.)

The next data set in a line: Cell cytotoxicity CC50. In kind it is cell-based. The conditions noted are these: human; mean of at least two experiments.
Another data set deals with RSV A2. Briefly: RSV plaque reduction assay. It is filed as cell-based, respiratory syncytial virus (RSV). The following applies: human respiratory syncytial virus, HepG2; Hep-G2 cells, RSV A2, mean of at least two experiments. On the procedure: Compounds were subjected to RSV plaque reduction assays according to the following protocol.
Hep-G2 cells (ECACC, 85011430) were passaged in flasks and seeded in 24-well plates in DMEM containing antibiotics and supplemented with 10% FBS. During inoculation and subsequent incubation, cells were cultured in DMEM containing 2% FBS. 100 plaque forming unit/well of RSV (RSV A2 ECACC, 0709161v) was mixed with eight serial dilutions of compound. Subsequently, 100 μL of the virus/compound mixtures was added to confluent Hep-G2 cell monolayers. The cells and virus/compound mixtures were incubated at 37° C. in a humidified 5% CO2 incubator for 2 h prior to removal of the inoculum and addition of 1 mL of overlay (DMEM containing 2% FBS and 0.8% CMC) containing compound dilutions. The cells and were incubated at 37° C. in a humidified 5% CO2 incubator for 2 days.
Cells were washed with PBS before adding 75/25% v/v EtOH/MeOH, for 3 min. Fixative was removed and plates were washed with PBS. A pre-titrated amount of the primary antibody was added in 200 μL PBS/2% milk powder, and plates incubated for 90 min at 37° C. The plates were washed 3 times with PBS/0.05% Tween20 before addition of rabbit anti-goat horse radish peroxidase in 200 μL PBS/2% milk powder, and incubated for 1 h at 37° C. Following three wash steps with PBS/0.05% Tween20, 200 μL ready-to-use TrueBlue was added and plates were incubated at rt for 10-15 min before washing with water. After removal of water, plates were air-dried in the dark.
Plates were scanned and analysed using the Immunospot S6 Macro analyser, which is equipped with BioSpot analysis software for counting immunostained plaques (virospots). Plaque counts were used to calculate % infection relative to the mean of the plaque count in the virus control wells for RSV. The EC50 value was calculated as 50% reduction in signal, respectively, by interpolation of inhibition curves fitted with a 4-parameter nonlinear regression with a variable slope in Dotmatics. Plaque EC50 and cell toxicity CC50 values are a mean of at least two experiments and figures are rounded to whole units.
(In general: In a plaque reduction assay, fewer plaques than in the control indicate reduced infectivity or spread.)

A short description of data set [2]: Liver microsomal stability, human. It is filed as in vitro ADME. The following applies: pH 7.4; human liver microsomes, 0.5 mg/mL protein, 1 μM compound, NADPH; >80% remaining at 45 min denoted >140; read-out: Liver Microsomal Stability: t1/2 (min); human. On the procedure: as §1, §2
Data set [3] is described as follows: Liver microsomal stability, dog. In kind it is in vitro ADME. The conditions noted are these: pH 7.4; dog liver microsomes, 0.5 mg/mL protein, 1 μM compound, NADPH; >80% remaining at 45 min denoted >140; read-out: Liver Microsomal Stability: t1/2 (min); dog. On the procedure: as §1, §2

The CC50 is the concentration giving 50% cytotoxicity. Read a high CC50 as lower toxicity to the cells. As a reminder, the EC50 is the midpoint of the concentration-response curve.

On to `O=C(N[C@H]1N=C(c2ccccc2)c2ccccc2NC1=O)c1cn(C2CCC(F)(F)CC2)nc1-c1ccc(NC2CC2)nc1F` [Example 34, 3-[6-(Cyclopropylamino)-2-fluoropyridin-3-yl]-1-(4,4-difluorocyclohexyl)-N-[(3S)-2-oxo-5-phenyl-1,3-dihydro-1,4-benzodiazepin-3-yl]pyrazole-4-carboxamide], for which the values for the half-life in data set [1], in data set [2] and in data set [3] were 121 min, 119 min and 85.8 min, respectively. The same molecule yielded a CC50 in “Cell cytotoxicity CC50” of over 25000 nM. This molecule also registered a 50% effective concentration (EC50) with RSV A2 of 96 nM.
Take `O=C(N[C@H]1N=C(c2ccccc2)c2cccc(F)c2NC1=O)c1cn(C2CCC(F)(F)CC2)nc1-c1ccc(NC2CC2)nc1F` [Example 35, 3-[6-(Cyclopropylamino)-2-fluoropyridin-3-yl]-1-(4,4-difluorocyclohexyl)-N-[(3S)-9-fluoro-2-oxo-5-phenyl-1,3-dihydro-1,4-benzodiazepin-3-yl]pyrazole-4-carboxamide]: the results for the half-life in data set [1], in data set [2] and in data set [3] were 181 min, 164 min and 90.9 min, respectively. The molecule also showed a CC50 in “Cell cytotoxicity CC50” of over 25000 nM. In the data set with RSV A2, the EC50 amounted to 60 nM.
The matching figures for `CCn1ncc(C(=O)N[C@H]2N=C(c3ccccc3)c3ccccc3NC2=O)c1-c1ncc(NC)cc1F` [Example 38, 1-Ethyl-5-(3-fluoro-5-(methylamino)pyridin-2-yl)-N—((S)-2-oxo-5-phenyl-2,3-dihydro-1H-benzo[e][1,4]diazepin-3-yl)-1H-pyrazole-4-carboxamide]: 42 min, 35.2 min, 48.6 min, over 25000 nM and 105 nM.
For `CCNc1cnc(-c2c(C(=O)N[C@H]3N=C(c4ccccc4)c4ccccc4NC3=O)cnn2CC)c(F)c1` [Example 39, 1-Ethyl-5-[5-(ethylamino)-3-fluoropyridin-2-yl]-N-[(3S)-2-oxo-5-phenyl-1,3-dihydro-1,4-benzodiazepin-3-yl]pyrazole-4-carboxamide], the half-life in data set [1] is 21.4 min; in data set [2] it was 62 min; in data set [3] it was 45.7 min. Further, the CC50 in “Cell cytotoxicity CC50” is over 25000 nM. Further, in the data set with RSV A2, a half-maximal effect (EC50) was put at 62 nM.
The like results for `CCNc1ccc(-c2c(C(=O)N[C@H]3N=C(c4ccccc4)c4cccc(F)c4NC3=O)cnn2C2COC2)c(F)n1` [Example 40, 5-[6-(Ethylamino)-2-fluoropyridin-3-yl]-N-[(3S)-9-fluoro-2-oxo-5-phenyl-1,3-dihydro-1,4-benzodiazepin-3-yl]-1-(oxetan-3-yl)pyrazole-4-carboxamide] were, in that order, 81.1 min, 49.6 min, 72.9 min, over 25000 nM and 67 nM.
The like results for `O=C(N[C@H]1N=C(c2ccccc2)c2ccccc2NC1=O)c1cnn(C2CCOCC2)c1-c1ccc(C2CC2)cc1F` [Example 43, 5-(4-Cyclopropyl-2-fluorophenyl)-1-(oxan-4-yl)-N-[(3S)-2-oxo-5-phenyl-1,3-dihydro-1,4-benzodiazepin-3-yl]pyrazole-4-carboxamide] were, in that order, 44.9 min, 170 min, 161 min, over 25000 nM and 48 nM.
Consider `O=C(N[C@H]1N=C(c2ccccc2)c2cccc(F)c2NC1=O)c1cnn(C2CCOCC2)c1-c1ccc(C2CC2)cc1F` [Example 44, 5-(4-Cyclopropyl-2-fluorophenyl)-N-[(3S)-9-fluoro-2-oxo-5-phenyl-1,3-dihydro-1,4-benzodiazepin-3-yl]-1-(oxan-4-yl)pyrazole-4-carboxamide], for which the half-life in data set [1] stood at 55.9 min; in data set [2], 201 min; in data set [3], 90 min. The molecule also displayed a CC50 in “Cell cytotoxicity CC50” of over 25000 nM. Further, the EC50 with RSV A2 is 48 nM.
On to `CCc1ccc(-c2c(C(=O)N[C@H]3N=C(c4ccccc4)c4cccc(F)c4NC3=O)cnn2C2CCOCC2)c(F)c1` [Example 47, 5-(4-Ethyl-2-fluorophenyl)-1-(oxan-4-yl)-N-[(3S)-9-fluoro-2-oxo-5-phenyl-1,3-dihydro-1,4-benzodiazepin-3-yl]pyrazole-4-carboxamide], for which the values for the half-life in data set [1], in data set [2] and in data set [3] were 33.1 min, 105 min and 81.4 min, respectively. The molecule also showed a half-maximal cytotoxic concentration (CC50) in the data set “Cell cytotoxicity CC50” of over 25000 nM. The same molecule displayed an EC50 in the data set with RSV A2 of 30 nM.
In the case of `CCn1ncc(C(=O)N[C@H]2N=C(c3ccccc3)c3cccc(F)c3NC2=O)c1-c1cc(C2CC2)cnc1F` [Example 48, 5-(5-Cyclopropyl-2-fluoropyridin-3-yl)-1-ethyl-N-[(3S)-9-fluoro-2-oxo-5-phenyl-1,3-dihydro-1,4-benzodiazepin-3-yl]pyrazole-4-carboxamide], the results for the half-life in data set [1], in data set [2] and in data set [3] were 118 min, 355 min and over 140 min, respectively. Moreover, in the data set “Cell cytotoxicity CC50”, the 50% cytotoxic concentration (CC50) is over 25000 nM. In addition, in the data set with RSV A2, the EC50 was determined as 92 nM.
The matching figures for `O=C(N[C@H]1N=C(c2ccccc2)c2cccc(F)c2NC1=O)c1cnn(C2CCOCC2)c1-c1ccc(C2CC2)nc1F` [Example 49, 5-(6-Cyclopropyl-2-fluoropyridin-3-yl)-N-[(3S)-9-fluoro-2-oxo-5-phenyl-1,3-dihydro-1,4-benzodiazepin-3-yl]-1-(oxan-4-yl)pyrazole-4-carboxamide]: 73.4 min, 181 min, 110 min, over 25000 nM and 100 nM.
Take `O=C(N[C@H]1N=C(c2ccccc2)c2ccccc2NC1=O)c1cnn(C2CCOCC2)c1-c1cc(C2CC2)cnc1F` [Example 50, 5-(5-Cyclopropyl-2-fluoropyridin-3-yl)-1-(oxan-4-yl)-N-[(3S)-2-oxo-5-phenyl-1,3-dihydro-1,4-benzodiazepin-3-yl]pyrazole-4-carboxamide]: the half-life in data set [1] came out at 44.2 min; in data set [2], 94.3 min; in data set [3] it was 163 min. In addition, the CC50 in “Cell cytotoxicity CC50” is over 25000 nM. Besides, the EC50 in the data set on RSV A2 is 81 nM.
The matching figures for `O=C(N[C@H]1N=C(c2ccccc2)c2cccc(F)c2NC1=O)c1cnn(C2CCOCC2)c1-c1cc(C2CC2)cnc1F` [Example 51, 5-(5-Cyclopropyl-2-fluoropyridin-3-yl)-N-[(3S)-9-fluoro-2-oxo-5-phenyl-1,3-dihydro-1,4-benzodiazepin-3-yl]-1-(oxan-4-yl)pyrazole-4-carboxamide]: 92.8 min, 171 min, 212 min, over 7790 nM and 53 nM.
Regarding `CCc1ccc(-c2c(C(=O)N[C@H]3N=C(c4ccccc4)c4cccc(F)c4NC3=O)cnn2C2CCOCC2)c(F)n1` [Example 53, 5-(6-Ethyl-2-fluoropyridin-3-yl)-1-(oxan-4-yl)-N-[(3S)-9-fluoro-2-oxo-5-phenyl-1,3-dihydro-1,4-benzodiazepin-3-yl]pyrazole-4-carboxamide], the half-life in data set [1] is 200 min; in data set [2], over 140 min; in data set [3], 183 min. The same molecule yielded a CC50 in “Cell cytotoxicity CC50” of over 25000 nM. For the same molecule, the EC50 with RSV A2 is 72 nM.
